Data as given in ChEMBL document CHEMBL4020831, “Discovery of GDC-0853: A Potent, Selective, and Noncovalent Bruton's Tyrosine Kinase Inhibitor in Early Clinical Development” (J Med Chem, 2018).
Converted amounts (≈) assume the structure as drawn.

Experiments:
ERBB2 = ERBB2 (Homo sapiens, UniProt P04626); test: Inhibition of recombinant human cytoplasmic His-tagged ERBB2 expressed in baculovirus at 1 uM by Z'-LYTE assay
TXK = target: T1, TXK (Homo sapiens, UniProt P42681); test: Inhibition of human full length GST-tagged TXK expressed in baculovirus at 1 uM by Z'-LYTE assay
T1 sequence (P42681 whole entry): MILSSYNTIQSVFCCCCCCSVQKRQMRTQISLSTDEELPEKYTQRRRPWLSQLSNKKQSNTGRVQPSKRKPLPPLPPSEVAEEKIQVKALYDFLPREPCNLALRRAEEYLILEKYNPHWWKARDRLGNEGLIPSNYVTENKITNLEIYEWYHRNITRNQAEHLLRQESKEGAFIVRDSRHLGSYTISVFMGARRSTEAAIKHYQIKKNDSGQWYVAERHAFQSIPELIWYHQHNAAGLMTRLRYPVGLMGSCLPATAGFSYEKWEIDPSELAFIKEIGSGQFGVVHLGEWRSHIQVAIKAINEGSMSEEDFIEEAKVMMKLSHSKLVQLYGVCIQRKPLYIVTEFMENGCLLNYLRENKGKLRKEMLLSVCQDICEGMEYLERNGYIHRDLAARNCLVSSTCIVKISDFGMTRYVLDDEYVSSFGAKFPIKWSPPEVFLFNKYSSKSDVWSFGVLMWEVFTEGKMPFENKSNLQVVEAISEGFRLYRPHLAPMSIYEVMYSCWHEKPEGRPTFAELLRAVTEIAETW

BLK = BLK (Homo sapiens, UniProt P51451); test: Inhibition of recombinant human full length His-tagged BLK expressed in baculovirus at 1 uM by Z'-LYTE assay
JAK3 = target: T2, JAK3 (Homo sapiens, UniProt P52333); test: Inhibition of recombinant human catalytic GST-tagged JAK3 expressed in baculovirus at 1 uM by Z'-LYTE assay
T2 sequence (P52333 whole entry): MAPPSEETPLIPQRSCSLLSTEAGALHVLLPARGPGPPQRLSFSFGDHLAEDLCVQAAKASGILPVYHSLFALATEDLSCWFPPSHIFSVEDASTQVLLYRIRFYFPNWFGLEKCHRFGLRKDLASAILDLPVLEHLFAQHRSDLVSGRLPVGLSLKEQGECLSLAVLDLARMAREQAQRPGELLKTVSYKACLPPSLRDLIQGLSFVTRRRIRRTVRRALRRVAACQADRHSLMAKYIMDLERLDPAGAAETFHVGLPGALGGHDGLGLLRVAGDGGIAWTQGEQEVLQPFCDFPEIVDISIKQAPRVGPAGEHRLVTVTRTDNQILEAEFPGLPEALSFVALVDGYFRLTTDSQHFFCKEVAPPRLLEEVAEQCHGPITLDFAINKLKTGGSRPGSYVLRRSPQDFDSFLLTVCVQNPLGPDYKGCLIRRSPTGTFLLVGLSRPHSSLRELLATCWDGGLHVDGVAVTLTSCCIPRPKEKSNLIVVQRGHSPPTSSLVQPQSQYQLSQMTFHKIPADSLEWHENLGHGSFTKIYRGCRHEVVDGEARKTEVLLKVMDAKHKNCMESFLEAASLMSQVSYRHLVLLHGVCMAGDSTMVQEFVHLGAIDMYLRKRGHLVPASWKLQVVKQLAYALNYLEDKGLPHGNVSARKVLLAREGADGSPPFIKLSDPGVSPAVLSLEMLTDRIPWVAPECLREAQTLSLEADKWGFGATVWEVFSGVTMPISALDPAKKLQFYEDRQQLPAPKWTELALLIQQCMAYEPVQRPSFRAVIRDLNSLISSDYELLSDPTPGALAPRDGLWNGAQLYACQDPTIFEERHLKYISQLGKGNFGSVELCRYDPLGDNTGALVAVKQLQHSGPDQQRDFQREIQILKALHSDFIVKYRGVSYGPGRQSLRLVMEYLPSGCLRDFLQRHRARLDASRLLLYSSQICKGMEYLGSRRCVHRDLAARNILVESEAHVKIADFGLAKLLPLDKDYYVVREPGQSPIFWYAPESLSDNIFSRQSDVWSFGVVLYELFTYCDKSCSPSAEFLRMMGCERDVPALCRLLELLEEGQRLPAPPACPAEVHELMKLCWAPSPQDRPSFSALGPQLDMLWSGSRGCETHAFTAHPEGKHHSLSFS

EGFR = EGFR (Homo sapiens, UniProt P00533); test: Inhibition of recombinant human cytoplasmic GST-tagged EGFR expressed in baculovirus at 1 uM by Z'-LYTE assay
LTK = LTK (Homo sapiens, UniProt P29376); test: Inhibition of recombinant human cytoplasmic GST-tagged LTK expressed in baculovirus at 1 uM by Z'-LYTE assay
ERBB4 = ERBB4 (Homo sapiens, UniProt Q15303); test: Inhibition of recombinant human cytoplasmic GST-tagged ERBB4 expressed in baculovirus at 1 uM by Z'-LYTE assay
TEC = target: T3, TEC (Homo sapiens, UniProt P42680); test: Inhibition of recombinant human cytoplasmic full length His-tagged TEC expressed in baculovirus at 1 uM by Z'-LYTE assay
T3 sequence (P42680 whole entry): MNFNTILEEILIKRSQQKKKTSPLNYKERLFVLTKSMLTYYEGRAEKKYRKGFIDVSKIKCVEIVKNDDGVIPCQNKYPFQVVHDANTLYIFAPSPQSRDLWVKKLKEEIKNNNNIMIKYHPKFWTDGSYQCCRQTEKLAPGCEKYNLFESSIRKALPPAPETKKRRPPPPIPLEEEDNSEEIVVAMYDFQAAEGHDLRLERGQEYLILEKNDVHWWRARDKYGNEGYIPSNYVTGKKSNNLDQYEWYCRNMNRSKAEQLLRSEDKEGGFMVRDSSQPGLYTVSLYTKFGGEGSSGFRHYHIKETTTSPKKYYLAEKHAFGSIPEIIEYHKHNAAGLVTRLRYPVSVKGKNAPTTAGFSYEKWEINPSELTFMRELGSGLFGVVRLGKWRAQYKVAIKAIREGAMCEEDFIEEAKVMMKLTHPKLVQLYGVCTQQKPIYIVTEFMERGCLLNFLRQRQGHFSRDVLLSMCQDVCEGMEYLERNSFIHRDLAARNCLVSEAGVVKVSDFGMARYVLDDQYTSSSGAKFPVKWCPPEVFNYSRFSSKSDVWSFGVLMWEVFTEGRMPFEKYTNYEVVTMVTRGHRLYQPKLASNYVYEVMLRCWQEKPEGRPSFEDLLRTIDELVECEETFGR

[1] = target: T4, Tyrosine-protein kinase BTK (Homo sapiens, UniProt Q06187); test: Inhibition of human recombinant C-terminal polyhistidine tagged BTK (1 to 659 residues)-mediated synthetic peptide substrate phosphorylation expressed in baculovirus-infected insect cells
[2] = Permeability across apical to basolateral in MDCK1 cells; format: ADME, cell-based, Canis lupus familiaris; details: dog, MDCK; read-out: permeability
[3] = Clearance in human liver microsomes at 1 uM incubated up to 60 mins by LC-MS/MS method; format: ADME, microsome
[4] = Clearance in human hepatocytes at 1 uM incubated up to 60 mins by LC-MS/MS method; format: ADME, cell-based, Hepatocyte
[5] = target: T4, Tyrosine-protein kinase BTK
Description: Inhibition of BTK in human whole blood-derived CD19+ B cells assessed as suppression of anti-IgM stimulated-CD69 expression preincubated for 1 hr followed by IgM stimulation for 18 hrs by FACS analysis

physchem = details: buffer, pH 7.4
in vitro = details: dog, MDCK
Description: Efflux ratio of permeability in MDCK1 cells

BMX = BMX (Homo sapiens, UniProt P51813); test: Inhibition of cytoplasmic recombinant human full length His-tagged BMX expressed in baculovirus at 1 uM by Z'-LYTE assay
[6] = target: T4, Tyrosine-protein kinase BTK; remark: listed apart in the source
Description: Inhibition of BTK in human whole blood derived-basophils assessed as suppression of IgE mediated-FcepsilonR ligation-stimulated CD63 expression

[7] = Kinetic solubility of the compound; format: physicochemical; details: read-out: Kinetic_solubility

Chain of BLK (P51451 whole entry): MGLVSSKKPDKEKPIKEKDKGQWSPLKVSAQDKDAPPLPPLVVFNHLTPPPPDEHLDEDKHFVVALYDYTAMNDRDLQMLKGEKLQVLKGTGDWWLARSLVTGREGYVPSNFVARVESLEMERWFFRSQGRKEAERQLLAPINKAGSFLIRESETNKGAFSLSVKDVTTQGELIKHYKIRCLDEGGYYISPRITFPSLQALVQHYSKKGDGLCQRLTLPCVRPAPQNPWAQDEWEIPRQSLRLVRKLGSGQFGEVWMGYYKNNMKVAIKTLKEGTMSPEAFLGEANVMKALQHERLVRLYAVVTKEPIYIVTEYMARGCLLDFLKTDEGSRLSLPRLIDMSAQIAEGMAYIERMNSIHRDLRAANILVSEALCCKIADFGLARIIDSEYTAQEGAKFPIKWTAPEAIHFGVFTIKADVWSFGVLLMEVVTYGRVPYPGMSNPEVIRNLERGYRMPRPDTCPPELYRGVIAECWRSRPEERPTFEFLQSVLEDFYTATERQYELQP
Chain of LTK (P29376 whole entry): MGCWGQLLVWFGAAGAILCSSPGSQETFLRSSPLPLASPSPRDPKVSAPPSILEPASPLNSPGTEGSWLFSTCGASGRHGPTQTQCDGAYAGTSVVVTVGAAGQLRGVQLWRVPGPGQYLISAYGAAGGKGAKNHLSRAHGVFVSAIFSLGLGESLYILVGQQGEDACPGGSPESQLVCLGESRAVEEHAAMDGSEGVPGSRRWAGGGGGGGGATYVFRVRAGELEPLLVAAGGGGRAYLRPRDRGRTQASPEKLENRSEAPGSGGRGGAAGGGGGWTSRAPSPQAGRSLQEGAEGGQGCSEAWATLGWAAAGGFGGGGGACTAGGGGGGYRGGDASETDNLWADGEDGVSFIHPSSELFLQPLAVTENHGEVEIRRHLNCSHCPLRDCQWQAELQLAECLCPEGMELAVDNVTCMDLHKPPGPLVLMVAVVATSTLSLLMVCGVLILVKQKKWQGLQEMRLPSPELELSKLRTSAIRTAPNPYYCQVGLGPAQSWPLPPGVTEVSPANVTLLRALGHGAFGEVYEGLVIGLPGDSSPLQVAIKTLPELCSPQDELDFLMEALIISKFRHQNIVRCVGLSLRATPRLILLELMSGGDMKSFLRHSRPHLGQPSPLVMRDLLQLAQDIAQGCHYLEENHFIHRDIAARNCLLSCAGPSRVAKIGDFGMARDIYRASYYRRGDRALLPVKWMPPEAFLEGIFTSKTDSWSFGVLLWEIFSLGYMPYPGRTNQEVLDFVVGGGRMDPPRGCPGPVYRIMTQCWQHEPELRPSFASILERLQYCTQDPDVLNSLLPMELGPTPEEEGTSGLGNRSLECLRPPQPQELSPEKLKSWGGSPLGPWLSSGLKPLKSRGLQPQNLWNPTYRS
Chain of EGFR (P00533 whole entry): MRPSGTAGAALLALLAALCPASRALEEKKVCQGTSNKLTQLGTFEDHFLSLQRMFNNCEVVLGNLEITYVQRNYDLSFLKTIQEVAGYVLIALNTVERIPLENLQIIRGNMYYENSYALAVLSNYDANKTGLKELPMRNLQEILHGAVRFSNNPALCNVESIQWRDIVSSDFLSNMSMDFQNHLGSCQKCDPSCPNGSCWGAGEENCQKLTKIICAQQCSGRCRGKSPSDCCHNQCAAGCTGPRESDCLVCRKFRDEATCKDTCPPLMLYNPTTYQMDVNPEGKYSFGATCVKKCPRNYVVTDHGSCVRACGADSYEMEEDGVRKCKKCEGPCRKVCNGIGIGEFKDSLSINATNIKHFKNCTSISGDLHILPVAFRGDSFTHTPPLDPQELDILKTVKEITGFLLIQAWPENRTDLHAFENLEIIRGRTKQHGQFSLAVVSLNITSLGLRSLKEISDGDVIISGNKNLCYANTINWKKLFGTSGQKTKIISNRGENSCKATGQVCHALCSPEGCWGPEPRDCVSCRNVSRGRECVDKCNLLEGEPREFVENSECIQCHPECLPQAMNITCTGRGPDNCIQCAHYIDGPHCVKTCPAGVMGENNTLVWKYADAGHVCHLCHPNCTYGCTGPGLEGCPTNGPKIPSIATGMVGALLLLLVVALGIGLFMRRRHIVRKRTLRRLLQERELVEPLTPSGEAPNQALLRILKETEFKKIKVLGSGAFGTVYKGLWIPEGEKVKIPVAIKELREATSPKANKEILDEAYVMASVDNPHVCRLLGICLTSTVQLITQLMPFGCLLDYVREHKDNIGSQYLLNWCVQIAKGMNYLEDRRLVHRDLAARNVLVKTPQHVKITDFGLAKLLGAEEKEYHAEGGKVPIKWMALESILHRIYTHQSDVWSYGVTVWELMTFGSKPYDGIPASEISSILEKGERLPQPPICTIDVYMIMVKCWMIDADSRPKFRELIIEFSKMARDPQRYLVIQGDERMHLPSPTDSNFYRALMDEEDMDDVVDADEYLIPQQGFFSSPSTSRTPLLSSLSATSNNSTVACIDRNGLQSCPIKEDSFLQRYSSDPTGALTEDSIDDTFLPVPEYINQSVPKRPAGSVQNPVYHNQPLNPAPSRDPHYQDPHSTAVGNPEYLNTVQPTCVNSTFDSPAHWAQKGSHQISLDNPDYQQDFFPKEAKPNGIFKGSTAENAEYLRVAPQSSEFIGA
Chain of ERBB4 (Q15303 whole entry): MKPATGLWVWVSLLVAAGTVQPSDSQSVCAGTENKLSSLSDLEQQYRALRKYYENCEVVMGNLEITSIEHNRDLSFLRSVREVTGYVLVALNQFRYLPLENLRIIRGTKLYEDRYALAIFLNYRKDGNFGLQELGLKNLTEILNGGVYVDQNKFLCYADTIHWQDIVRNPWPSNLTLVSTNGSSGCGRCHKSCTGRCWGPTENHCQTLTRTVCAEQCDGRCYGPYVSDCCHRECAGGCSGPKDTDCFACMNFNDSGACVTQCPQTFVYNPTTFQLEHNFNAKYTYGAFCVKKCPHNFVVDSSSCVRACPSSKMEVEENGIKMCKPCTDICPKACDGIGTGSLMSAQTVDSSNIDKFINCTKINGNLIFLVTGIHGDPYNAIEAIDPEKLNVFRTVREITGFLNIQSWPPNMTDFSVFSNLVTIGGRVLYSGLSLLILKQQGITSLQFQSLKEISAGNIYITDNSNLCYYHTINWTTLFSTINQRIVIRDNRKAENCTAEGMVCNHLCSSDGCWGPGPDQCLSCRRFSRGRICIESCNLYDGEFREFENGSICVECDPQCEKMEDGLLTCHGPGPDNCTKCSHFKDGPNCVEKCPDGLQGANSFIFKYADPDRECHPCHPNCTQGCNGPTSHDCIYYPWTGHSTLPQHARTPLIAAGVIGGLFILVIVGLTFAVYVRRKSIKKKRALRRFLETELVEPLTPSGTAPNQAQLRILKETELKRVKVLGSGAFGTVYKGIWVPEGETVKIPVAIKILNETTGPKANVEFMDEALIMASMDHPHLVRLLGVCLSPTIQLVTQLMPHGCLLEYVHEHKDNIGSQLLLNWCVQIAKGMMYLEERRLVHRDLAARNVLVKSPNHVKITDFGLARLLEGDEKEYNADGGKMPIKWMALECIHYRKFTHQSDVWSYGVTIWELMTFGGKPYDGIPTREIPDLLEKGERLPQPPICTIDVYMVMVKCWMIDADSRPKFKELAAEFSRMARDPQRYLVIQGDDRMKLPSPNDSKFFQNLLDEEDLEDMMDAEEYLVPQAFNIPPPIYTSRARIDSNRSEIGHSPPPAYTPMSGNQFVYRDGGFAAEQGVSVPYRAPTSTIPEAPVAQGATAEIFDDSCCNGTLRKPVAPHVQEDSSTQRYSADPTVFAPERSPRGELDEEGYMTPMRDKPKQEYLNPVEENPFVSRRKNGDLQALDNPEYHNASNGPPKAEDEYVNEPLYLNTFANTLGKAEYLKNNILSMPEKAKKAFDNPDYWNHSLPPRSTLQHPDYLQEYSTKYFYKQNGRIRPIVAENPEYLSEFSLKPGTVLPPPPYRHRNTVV
T4 sequence (Q06187 whole entry, the tested form may be a part): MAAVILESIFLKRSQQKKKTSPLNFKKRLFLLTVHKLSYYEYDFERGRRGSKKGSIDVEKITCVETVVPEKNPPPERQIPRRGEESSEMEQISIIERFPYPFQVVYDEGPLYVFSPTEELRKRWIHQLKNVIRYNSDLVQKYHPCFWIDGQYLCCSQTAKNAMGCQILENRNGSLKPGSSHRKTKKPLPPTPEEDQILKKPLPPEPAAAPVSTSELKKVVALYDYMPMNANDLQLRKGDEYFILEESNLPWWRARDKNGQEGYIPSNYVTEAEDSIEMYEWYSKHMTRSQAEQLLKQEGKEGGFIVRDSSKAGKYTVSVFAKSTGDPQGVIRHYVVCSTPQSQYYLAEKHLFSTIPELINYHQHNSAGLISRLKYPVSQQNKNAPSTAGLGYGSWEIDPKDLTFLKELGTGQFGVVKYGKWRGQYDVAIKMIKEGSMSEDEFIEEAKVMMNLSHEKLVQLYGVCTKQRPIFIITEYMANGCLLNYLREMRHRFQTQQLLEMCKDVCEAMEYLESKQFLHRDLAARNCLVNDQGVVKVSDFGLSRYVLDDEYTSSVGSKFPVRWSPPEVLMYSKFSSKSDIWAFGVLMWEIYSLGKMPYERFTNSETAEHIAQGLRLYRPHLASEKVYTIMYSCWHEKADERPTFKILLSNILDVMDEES

| SMILES | inhibition at 1 µM (ERBB2) [%] | inhibition at 1 µM (TXK) [%] | inhibition at 1 µM (BLK) [%] | inhibition at 1 µM (JAK3) [%] | inhibition at 1 µM (EGFR) [%] | inhibition at 1 µM (LTK) [%] | inhibition at 1 µM (ERBB4) [%] | inhibition at 1 µM (TEC) [%] | Ki [1] [nM] | Papp A→B [2] [×10⁻⁶ cm/s] | CLhep predicted at 1 µM [3] [mL/min/kg] | CLhep predicted at 1 µM [4] [mL/min/kg] | IC50 [5] [nM] | logD (physchem) | efflux ratio (in vitro) | inhibition at 1 µM (BMX) [%] | IC50 [6] [nM] | solubility kinetic [7] [µM] |
| --- | --- | --- | --- | --- | --- | --- | --- | --- | --- | --- | --- | --- | --- | --- | --- | --- | --- | --- |
| CC#CC(=O)N1CC[C@@H](n2c(=O)n(-c3ccc(Oc4ccccc4)cc3)c3c(N)ncnc32)C1 [TIRABRUTINIB] | 7 | 66 | 47 | -7 | -2 | -5 | 28 | 86 |  |  |  |  |  |  |  |  |  |  |
| C[C@@H]1CN(c2ccc(Nc3cc(-c4ccnc(N5CCn6c(cc7c6CC(C)(C)C7)C5=O)c4CO)cn(C)c3=O)nc2)[C@@H](C)CN1C1COC1 |  |  |  |  |  |  |  |  | 1.3 | 7.2 | 12 | 12 | 10.2 | 3.5 | 0.9 |  |  |  |
| Cc1c(-c2c(F)cc(C(N)=O)c3[nH]c4c(c23)CC[C@@H](C(C)(C)O)C4)cccc1-n1c(=O)c2cccc(F)c2n(C)c1=O | 1 | 81 | 82 | -2 | 7 | 47 | 38 | 98 |  |  |  |  | 88.3 |  |  | 80 | 374 |  |
| C=CC(=O)Nc1cccc(Nc2nc(Nc3ccc(OCCOC)cc3)ncc2F)c1 [SPEBRUTINIB] | 6 | 95 | 44 | 89 | 34 | 19 | 76 | 92 |  |  |  |  |  |  |  | 99 |  |  |
| Cn1cc(-c2cc(F)cc(N3CCn4c(cc5c4CCCC5)C3=O)c2CO)cc(Nc2ccc(N3CCN(C4COC4)CC3)cn2)c1=O |  |  |  |  |  |  |  |  |  |  | 12.3 |  |  | 3.1 |  |  |  | 12 (≈ 7.85 µg/mL) |
| C=CC(=O)N1CCC(CNc2ncnc(N)c2-c2ccc(Oc3ccccc3)cc2)CC1 [EVOBRUTINIB] | 1 | 30 | 42 | 0 | 1 | -2 | 57 | 80 |  |  |  |  |  |  |  |  |  |  |
| C[C@H]1CN(C2COC2)CCN1c1ccc(Nc2cc(-c3ccnc(N4CCn5c(cc6c5CC(C)(C)C6)C4=O)c3CO)nn(C)c2=O)nc1 |  |  |  |  |  |  |  |  |  | 17.3 | 11 | 13 | 16.1 | 3.7 | 0.9 |  |  |  |
| C[C@H]1CN(C2COC2)CCN1c1cnc(Nc2cc(-c3ccnc(N4CCn5c(cc6c5CC(C)(C)C6)C4=O)c3CO)cn(C)c2=O)cn1 |  |  |  |  |  |  |  |  | 0.8 | 15.6 | 12 | 10 | 51.5 |  | 1.2 |  |  |  |
| CC[C@H]1CN(C2COC2)CCN1c1ccc(Nc2cc(-c3ccnc(N4CCn5c(cc6c5CC(C)(C)C6)C4=O)c3CO)cn(C)c2=O)nc1 |  |  |  |  |  |  |  |  | 0.96 | 9.5 | 12 | 16 | 15.9 | 3.6 | 0.9 |  |  |  |
| C[C@@H]1CN(C2COC2)CCN1c1ccc(Nc2cc(-c3ccnc(N4CCn5c(cc6c5CC(C)(C)C6)C4=O)c3CO)cn(C)c2=O)nc1 |  |  |  |  |  |  |  |  |  | 7.8 | 15 | 14 |  | 2.8 |  |  |  |  |
| C=CC(=O)N1CCC[C@@H](n2nc(-c3ccc(Oc4ccccc4)cc3)c3c(N)ncnc32)C1 [IBRUTINIB] | 91 | 93 | 102 | 80 |  | 81 | 93 | 100 |  |  |  |  |  |  |  |  |  |  |
| CC#CC(=O)N1CCC[C@H]1c1nc(-c2ccc(C(=O)Nc3ccccn3)cc2)c2c(N)nccn12 [ACALABRUTINIB] | 36 | 31 | 16 | -3 | -1 | 2 | 93 | 71 |  |  |  |  |  |  |  |  |  |  |
| CC(=O)N1CCN(c2ccc(Nc3cc(-c4ccnc(N5CCn6c(cc7c6CC(C)(C)C7)C5=O)c4CO)cn(C)c3=O)nc2)CC1 |  |  |  |  |  |  |  |  | 1.8 | 11.1 | 8.8 |  | 66.5 | 2.9 | 1.2 |  |  |  |
| Cn1cc(-c2ccnc(N3CCn4c(cc5c4CC(C)(C)C5)C3=O)c2CO)cc(Nc2ccc(C3CN(C4COC4)C3)cn2)c1=O |  |  |  |  |  |  |  |  | 0.43 | 48.5 | 16 |  | 23.5 | 3 | 0.4 |  |  |  |
